Earlier results in patent US8137397B2, “Medical devices” (Boston Scientific Scimed, Inc., priority 2004, dated 2012).

Settings: at about room temperature, i.e., about 25° C.; for solubility: in water

| Structure (SMILES) | solubility | solubility in water (in words) |
| --- | --- | --- |
| OC[C@@H](O)[C@@H](O)[C@H](O)[C@H](O)CO [Mannitol, mannitol] | about 0.18 gram/mL of water |  |
| O=C(CO)[C@H](O)[C@@H](O)[C@H](O)CO [Sorbose, sorbose] |  | freely soluble in water |
| OC[C@H]1O[C@@](CO)(O[C@H]2O[C@H](CO)[C@@H](O)[C@H](O)[C@H]2O)[C@@H](O)[C@@H]1O [Sucrose, sucrose] | about 2 gram/mL of water |  |
| [Cl-].[K+] [Potassium chloride, potassium chloride] | about 0.36 gram/mL of water |  |
